What was measured:
[1] = mice and humans, literature; cited from earlier work
[2] = tested on: E. multilocularis metacestodes; assay: Secondary infection with E. multilocularis metacestodes, chemotherapy starting at the timepoint of infection (Example 1); type: in vivo, Echinococcus multilocularis; conditions: Balb/c mice, i.p. 20 metacestodes; daily intragastric treatment from day of infection for 35 days; necropsy day 36; CMC group 0.23±0.05 g
Experimental: (§1) E. multilocularis metacestodes (isolate IM280) were maintained by serial transplantation passages through intraperitoneal (i.p.) injection in gerbils (Meriones unguiculatus). Animals were sacrificed at four to ten weeks p.i, and the parasite material was removed from the peritoneal cavity under aseptic conditions, placed into Hanks balanced salt solution (HBSS), and washed several times. Vesicle suspensions were prepared as described in Hemphill, A., and B. Gottstein. 1995. Immunology and morphology studies on the proliferation of in vitro cultivated Echinococcus multilocularis metacestodes. Parasitol. Res. 81: 605-614. Vesicles were washed once in HBSS, and the number of intact metacestodes in 50 ml HBSS was determined microscopically. The metacestode suspension was adjusted to 20 intact vesicles/100 ml HBSS, and was used for infection experiments immediately.
Six week old Balb/c mice were housed in a temperature-controlled light-cycle room with food and water ad libitum. The mice were separated into experimental groups of 10 animals each. Drug suspensions (30 mg/ml NTZ, 10 mg/ml ABZ, and 30 mg NTZ plus 10 mg ABZ/ml, respectively) were prepared in carboxymethylcellulose (CMC) 0.5% (w/v) in water. […]
(§2) For assessments of secondary infections, parasite tissue was carefully removed from the peritoneal cavity, and the parasite weight was determined as described in: Dai, W. J., and B. Gottstein. […]

[3] = tested on: E. multilocularis metacestodes; assay: Secondary infection with E. multilocularis metacestodes, chemotherapy starting at two months post infection (Example 2); type: in vivo, Echinococcus multilocularis; conditions: Balb/c mice; treatment initiated 2 months p.i., daily for 35 days; vs CMC control (4.3±0.9 g)
Experimental: as §1, with “The metacestode suspension was adjusted to 20 intact vesicles/100 ml HBSS, and was used for infection experiments immediately.” left out
as §2
(§3) For serological and lymphocyte proliferation assays, blood was taken from euthanized mice by heart puncture, and total IgG-, as well as IgG1- and IgG2a-isotype levels against crude E. multilocularis extract (Faub-antigen) and vesicle fluid antigen, were determined according to: Dai, W. J., A. Hemphill, A. Waldvogel, K. Ingold, P. Deplazes, H. Mossmann, and B. Gottstein. […]

[4] = tested on: E. multilocularis metacestode tissue; assay: Histology and transmission electron microscopy of metacestode tissue from treated mice (Example 5); type: in vivo, Echinococcus multilocularis; conditions: for Ultrastructural alterations of metacestode tissue (TEM): tissue from treated infected mice vs CMC-control; for Histology of metacestode tissue: tissue from treated infected mice vs control
Experimental: For histological and transmission electron microscopy (TEM) analysis, tissue samples were fixed in 3% paraformaldehyde/1% glutaraldehyde in 100 mM sodium cacodylate buffer (pH 7.2) for 24 h at 4° C., and postfixed in 2% OsO4 in cacodylate buffer for 4 h at room temperature. The samples were then processed and embedded in Epon 812 epoxy resin as described previously in: Hemphill, A., and S. L. Croft. 1997. Electron microscopy in Parasitology. In: p. 227-268. M. Rogan (ed), Analytical Parasitology, Springer Verlag, Heidelberg. Sections of […] in thickness were used for histological examination, and ultrathin sections 80-100 nm for transmission electron microscopy. Sections were loaded onto 300-mesh copper grids, and were contrasted with uranyl acetate and lead citrate as described previously in: Hemphill, A., and S. L. Croft. 1997. Electron microscopy in Parasitology. In: p. 227-268. M. Rogan (ed), Analytical Parasitology, Springer Verlag, Heidelberg. Specimens were viewed on a Phillips 300 transmission electron microscope operating at 60 kV.
Because it was not possible to investigate alterations of the actual parasite tissue on the germinal layer using histology, transmission electron microscopy was performed on sections obtained from the same tissue blocks. For evaluating the ultrastructural changes occurring during drug treatments, it is important to note that the process of tissue damage was not uniform, as it progressed at different rates in different metacestode vesicles. However, within a single metacestode, damage was rather homogenous. Therefore, a large number of different metacestodes, and as a consequence, different areas of a tissue block, were investigated in order to show a complete picture of the tissue alterations induced by ABZ, NTZ, and NTZ/ABZ-treatments.

[5] = Single-dose pharmacokinetic study, serum levels of TIZ, TIZ-gluc and ABZSO (Example 4); type: in vivo; conditions: non-infected Balb/c mice; single dose 1 mg ABZ or 3 mg/1 mg NTZ/ABZ
Experimental: A total of 120 6-week old non-infected Balb/c mice were divided into three treatment groups: group 1 (NTZ—30 mice), group 2 (ABZ—30 mice), group 3 (NTZ/ABZ—60 mice). They received a single dose of 3 mg NTZ (group 1), 1 mg ABZ (group 2) and 3 mg/1 mg of NTZ/ABZ (group 3) in a volume of 100 μl suspended in 0.5% CMC. At defined time points following inoculation, (0, 1, 2, 4, 6, 8, 12, 24 and 48 h), blood samples were obtained from three mice/group, and blood levels of tizoxanide (TIZ), tizoxanide-glucuronide (TIZ-gluc) and ABZSO were assayed.
TIZ and Tiz-gluc were extracted from mouse serum samples using protein precipitation with acetonitrile. The supernatant was evaporated and reconstituted in injection solvent before injection. Chromatographic separation was achieved on a C18 column (5 pm 70×2 mm). Detection was by a mass spectrometer with an ion spray ionization source. Negative ions were detected in multiple reaction monitoring mode (Q1=264 m/z and Q3=216.9 m/z for TIZ, and Q1=439.9 m/z and Q3=263.9 m/z for TIZ-gluc). The lower limits of quantitation were 0.05 μg/ml and 0.2 μg/ml for TIZ and TIZ-gluc, respectively. […]

[6] = Solubility of NTZ in solvents; type: physicochemical
[7] = tested on: E. multilocularis eggs; assay: Primary infection with E. multilocularis eggs, chemotherapy starting at two months post infection (Example 3); type: in vivo, Echinococcus multilocularis; conditions: Balb/c mice, 2000 eggs intragastric; NTZ from 2 months p.i., daily for 35 days; infection control 5 lesions/mouse
Source text: Infective E. multilocularis eggs were isolated from fox intestinal tissue as described (Pater, C., V. Muller, S. Harraga, M. Liance, V. Godot, J. P. Carbillet, D. Meillet, T. Romig, and D. A. Vuitton. 1998). Intestinal and systemic humoral immunological events in the susceptible Balb/C mouse strain after oral administration of Echinococcus multilocularis eggs. Parasite Immunol. 20: 623-9). The infectivity of this batch of eggs was pre-determined by titration-infection experiments in mice, and an infection dose of 2000 eggs was used.
Six week old Balb/c mice were housed in a temperature-controlled light-cycle room with food and water ad libitum. The mice were separated into experimental groups of 10 animals each. […]
For analysis of primary infection, the entire liver was removed, and lesion numbers were determined as described: Siles-Lucas, M., M. Merli, U. Mackenstedt and B. Gottstein 2003. […]
as §3

[8] = Oral absorption of NTZ (general statement)

Question: Which results are given for `CCCSc1ccc2nc(NC(=O)OC)[nH]c2c1` [ABZ]?
Answer: Time after which ABZSO disappears following ABZ uptake [1]: ≤ 10 h; Parasite weight [2]: 0.08 ± 0.01 g; Reduction in parasite weight (in words) [3]: significant reduction in parasite weight; Ultrastructural alterations of metacestode tissue (TEM) [4]: parasite tissue was mostly reduced to only the tegument; Histology of metacestode tissue [4]: limited destructive effect; ABZSO serum concentration at 12 h [5]: zero

Question: With `CC(=O)Oc1ccccc1C(=O)Nc1ncc([N+](=O)[O-])s1` [NTZ, 2-(acetolyloxy)-N-(5-nitro-2-thiazolyl)benzamide] as the compound, how does the Parasite weight [2] read?
Answer: Its Parasite weight is 0.17 ± 0.05 g.

Question: And the solubility ([6]; DMSO, organic solvent or mixture)?
Answer: Its solubility is no less than 2 mg/mL.

Question: And the “Solubility in acetic acid” value ([6]; acetic acid)?
Answer: Its value is “poorly soluble”.

Question: What about the Solubility in acetone ([6]; acetone) of the same compound?
Answer: Its Solubility in acetone is “fairly soluble”.

Question: What about the Solubility in chloroform ([6]; chloroform) of the same compound?
Answer: Its Solubility in chloroform is “poorly soluble”.

Question: And the Solubility in dioxane ([6]; dioxane)?
Answer: The Solubility in dioxane was “fairly soluble”.

Question: And the Solubility in ethanol ([6]; ethanol)?
Answer: Its Solubility in ethanol is “poorly soluble”.

Question: And the Solubility in ether ([6]; ether)?
Answer: Its Solubility in ether is “very poorly soluble”.

Question: And the “Solubility in methyl benzene” value ([6]; methyl benzene)?
Answer: Its value is “very poorly soluble”.

Question: What about the Solubility in pyridine ([6]; pyridine) of the same compound?
Answer: Its Solubility in pyridine is “easily soluble”.

Question: And the Solubility in water ([6]; water)?
Answer: Its Solubility in water is “very poorly soluble”.

Question: What about the “Reduction in parasite weight (in words)” value [3] of the same compound?
Answer: The value was “not statistically significant”.

Question: And the “Ultrastructural alterations of metacestode tissue (TEM)” value [4]?
Answer: The value was “rather heterogeneous morphological features”.

Question: What about the “Histology of metacestode tissue” value [4] of the same compound?
Answer: The value was “limited destructive effect”.

Question: And the “Number of liver lesions (means)” value [7]?
Answer: The value was 2.2 lesions/mouse.

Question: And the Oral absorption [8]?
Answer: The Oral absorption was “easily absorbed orally”.

— US20050171169A1, “Combination chemotherapy for helminth infections” (priority 2004, published 2005)
